Reference: patent US20140088114A1, “FUSED BICYCLIC KINASE INHIBITORS” (OSI Pharmaceuticals ,LLC, priority 2011, published 2014)

Experiments:
Aurora B = target: T1, Aurora B (Homo sapiens, UniProt Q96GD4); assay: Aurora B cell mechanistic assay (HT-29), phospho-Histone H3 (Ser10) ELISA; format: cell-based; conditions: HT-29 cell line, inhibition of phospho-Histone H3 (Ser10), at least duplicate experiments (italicized if single); read-out: Aurora B mech IC50
T1 construct: HT-29 cells grown in complete growth media; endogenous in cells; host or cells: HT-29
T1 sequence (Q96GD4 whole entry): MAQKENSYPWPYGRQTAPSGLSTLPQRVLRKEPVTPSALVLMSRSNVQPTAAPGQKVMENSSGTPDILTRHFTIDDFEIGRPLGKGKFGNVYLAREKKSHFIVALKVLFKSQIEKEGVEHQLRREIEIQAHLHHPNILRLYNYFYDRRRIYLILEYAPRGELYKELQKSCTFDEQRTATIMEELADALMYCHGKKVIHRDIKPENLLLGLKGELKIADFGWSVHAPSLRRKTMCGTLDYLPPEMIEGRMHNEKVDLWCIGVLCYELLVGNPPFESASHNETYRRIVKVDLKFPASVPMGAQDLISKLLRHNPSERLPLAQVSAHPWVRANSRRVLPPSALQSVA
Description: The cellular activity of the compounds of the present invention against Aurora B may be determined by the following procedure. HT-29 cells grown in complete growth media (McCoy's 5A, 10% FCS, 1% L-glutamine) were plated into wells of a 96 well tissue culture plate (Falcon 3072) at a cell density of 4×10^4 cells/0.09 ml media/well. Cells were subsequently incubated overnight in a 5% CO2 humidified 37° C. incubator. The following day 10 μl of a 10× stock of test compound serially diluted in media was added to the cells and incubated for 1 h at 37° C. at which time Calyculin A (Cell Signaling #9902) was added at a concentration of 100 nM and cells incubated for an additional 30 minutes in a 5% CO2 humidified 37° C. incubator. Media was then aspirated and cells lysed using a Triton based lysis buffer. Lysates were transferred to a pre-coated anti-Histone H3 antibody coated plate supplied by Cell Signaling in their PathScan phospho-Histone H3 (Ser10) ELISA kit (#7155). After an overnight incubation with lysate the ELISA was continued following the manufacturer's instructions. Signal was measured on a Wallac Victor plate reader at 450 nm. DMSO control treated cells served as 100% signal and an Aurora B kinase inhibitor served as 100% inhibition. The percent inhibition of phospho-Histone H3 (Ser10) was expressed as % control. IC50 values were calculated from the percent control data using a standard four-parameter model.
The IC50 values of exemplary compounds of the present invention determined in a Aurora B cell mechanistic assay using the HT-29 cell line according to the procedures described herein in at least duplicate experiments are abbreviated as follows and are shown in Table 4: A, IC50≦0.03 μM; B, 0.03 μM<IC50≦0.1 μM; C, 0.1 μM<IC50≦1 μM; D, 1 μM<IC50≦3 μM; ND, not determined. If only data from single experiments are available, the abbreviations are italicized. The Example # of Table 4 corresponds to the compound example number as illustrated in the Examples section.

MKN45 cells = assay: MKN45 cell proliferation assay (CellTiter-Glo); format: cell-based; conditions: Homo sapiens, MKN-45, 72 h; MKN45 cell line, 3 days incubation, at least duplicate experiments; read-out: Prolif. IC50
Description: The effect of inhibitors on the proliferation of MKN45 cells was determined using the following protocol. MKN45 cells were plated in Corning 3917 96-well white tissue culture treated plates in growth medium (RPMI, 10% FCS) at a density of 5000 cells/well in a total volume of 135 μL and incubated at 37° C., 5% CO2, 95% humidity overnight. The following day, one-tenth volume of a 10× concentration of compounds was added to the wells in an 8-point dilution series. The dilution series was composed of an initial 1:5 dilution of a 10 mM stock of compound in DMSO, followed by serial 1:4 dilutions in DMSO, then a 1:20 dilution in growth medium prior to the 1:10 dilution into the cell plate. Final DMSO concentration on the cells was 0.1%, there were control wells treated with both 0.1% DMSO and no DMSO. The typical dilution range is 10 μM to 0.6 nM. Once the compound was added to the cells, plates were incubated for 3 days at 37° C., 5% CO2 at 95% humidity. On the third day, after allowing all cells and reagents to come to room temperature, 25 μL of CellTiter-Glo reagent (Promega #G7573) was added to the wells. Plates were shaken on a platform for 10 minutes prior to reading luminescence for 0.1 seconds. The signal of the control wells was taken as 100% growth and growth inhibition was expressed as percent of control. IC50 values were determined from the percent of control data using a standard four-parameter model.
The IC50 values of exemplary compounds of the present invention determined in a cell proliferation assay using the MKN45 cell line according to the procedures described herein in at least duplicate experiments are abbreviated as follows and are shown in Table 2: A, IC50≦0.03 μM; B, 0.03 μM<IC50≦0.1 μM; C, 0.1 μM<IC50≦1 μM; D, 1 μM<IC50≦3 μM; ND, not determined. The Example # of Table 2 corresponds to the compound example number as illustrated in the Examples section. […]

SMILES	IC50 (Aurora B) [nM]	IC50 (MKN45 cells) [nM]
Cn1cc(-c2cnc3[nH]cc(C(CF)c4c(Cl)ccc(F)c4Cl)c3c2)cn1 (stereo not shown) [Example 1, 3-[1-(2,6-Dichloro-3-fluorophenyl)-2-fluoroethyl]-5-(1-methyl-1H-pyrazol-4-yl)-1H-pyrrolo[2,3-b]pyridine]	100 to 1000	100 to 1000
O[C@H]1CC[C@H](n2cc(-c3cnc4[nH]cc([C@H](CF)c5c(OC(F)F)ccc(F)c5Cl)c4c3)cn2)CC1 [Example 5, trans-4-[4-(3-{(1S)-1-[2-Chloro-6-(difluoromethoxy)-3-fluorophenyl]-2-fluoroethyl}-1H-pyrrolo[2,3-b]pyridin-5-yl)-1H-pyrazol-1-yl]cyclohexanol]	≤ 30	–
O[C@H]1CC[C@H](n2cc(-c3cnc4[nH]cc([C@@H](CF)c5c(OC(F)F)ccc(F)c5Cl)c4c3)cn2)CC1 [Example 4, trans-4-[4-(3-{(1R)-1-[2-Chloro-6-(difluoromethoxy)-3-fluorophenyl]-2-fluoroethyl}-1H-pyrrolo[2,3-b]pyridin-5-yl)-1H-pyrazol-1-yl]cyclohexanol]	100 to 1000	≤ 30
COc1ccc(F)c(Cl)c1[C@@H](CF)c1c[nH]c2ncc(-c3cnn([C@H]4CC[C@H](O)CC4)c3)cc12 [Example 3, trans-4-(4-{3-[(1S)-1-(2-chloro-3-fluoro-6-methoxyphenyl)-2-fluoroethyl]-1H-pyrrolo[2,3-b]pyridin-5-yl}-1H-pyrazol-1-yl)cyclohexanol]	≤ 30	100 to 1000
